Experiment [1] has as its target T1, AHR (Homo sapiens, UniProt P35869).
T1 sequence (P35869 11-848): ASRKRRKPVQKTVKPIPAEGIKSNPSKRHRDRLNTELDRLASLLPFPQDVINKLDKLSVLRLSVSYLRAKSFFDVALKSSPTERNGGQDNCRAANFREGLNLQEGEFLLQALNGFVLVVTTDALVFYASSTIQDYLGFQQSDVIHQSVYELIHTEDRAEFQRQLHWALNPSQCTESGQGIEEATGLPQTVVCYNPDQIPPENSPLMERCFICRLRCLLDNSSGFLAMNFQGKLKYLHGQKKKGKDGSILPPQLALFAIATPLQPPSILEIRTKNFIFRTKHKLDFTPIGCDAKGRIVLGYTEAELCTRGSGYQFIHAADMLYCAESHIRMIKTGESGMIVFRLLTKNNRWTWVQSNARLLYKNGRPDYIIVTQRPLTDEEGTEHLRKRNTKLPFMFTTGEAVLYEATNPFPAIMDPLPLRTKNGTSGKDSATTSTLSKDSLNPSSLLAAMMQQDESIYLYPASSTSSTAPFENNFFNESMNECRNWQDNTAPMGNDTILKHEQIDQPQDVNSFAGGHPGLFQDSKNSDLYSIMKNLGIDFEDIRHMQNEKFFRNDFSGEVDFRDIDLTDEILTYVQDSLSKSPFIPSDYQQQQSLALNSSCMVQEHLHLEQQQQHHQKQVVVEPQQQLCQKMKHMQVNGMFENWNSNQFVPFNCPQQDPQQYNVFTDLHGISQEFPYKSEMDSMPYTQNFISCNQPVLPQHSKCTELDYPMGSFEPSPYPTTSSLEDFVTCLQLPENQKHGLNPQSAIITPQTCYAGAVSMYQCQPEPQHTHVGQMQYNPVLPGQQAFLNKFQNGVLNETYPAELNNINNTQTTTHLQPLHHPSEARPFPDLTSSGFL
Put plainly: In vitro assay 2: agonism in human cell line (transactivation assay). The note with it: Assay 2: AHR-luc Hum Agonism IC50 [M], no kynurenic acid, 20 hours, firefly luciferase.

Experiment [2] concerns the target T1, AHR. Put plainly: In vitro assay 1: antagonism in human cell line (transactivation assay, kynurenic acid prestimulated). The settings on record: Assay 1: AHR-luc Hum Antagonism IC50 [M], 150 μM kynurenic acid, 20 hours, firefly luciferase.

A word on the IC50: it is the concentration at which inhibition is half-maximal. Low values mean inhibition by little substance, high ones a need for much substance.

With `O=C(NC(CO)C1CCCO1)c1cc(-c2ccc(Cl)cc2)nn(-c2cccc(F)c2)c1=O` (racemic) [Example 230, 3,6-Anhydro-2-({[6-(4-chlorophenyl)-2-(3-fluorophenyl)-3-oxo-2,3-dihydropyridazin-4-yl]carbonyl}amino)-2,4,5-trideoxy-DL-erythro-hexitol and 1,4-anhydro-5-({[6-(4-chlorophenyl)-2-(3-fluorophenyl)-3-oxo-2,3-dihydropyridazin-4-yl]carbonyl}amino)-2,3,5-trideoxy-DL-threo-hexitol], the half-maximal inhibitory concentration (IC50) was more than 2e-05 M in experiment [1] and 1.37e-07 M in experiment [2].
In the case of `O=C(NCC(O)C1CCCC1)c1cc(-c2ccc(Cl)cc2)nn(-c2cccc(F)c2)c1=O` (racemic) [Example 232, 6-(4-Chlorophenyl)-N-[(2RS)-2-cyclopentyl-2-hydroxyethyl]-2-(3-fluorophenyl)-3-oxo-2,3-dihydropyridazine-4-carboxamide], the IC50 in experiment [1] was more than 2e-05 M; in experiment [2], 1.19e-07 M.
Regarding `CCC(CC)C(O)CNC(=O)c1cc(-c2ccc(Cl)cc2)nn(-c2cccc(F)c2)c1=O` (racemic) [Example 233, 6-(4-Chlorophenyl)-N-[(2RS)-3-ethyl-2-hydroxypentyl]-2-(3-fluorophenyl)-3-oxo-2,3-dihydropyridazine-4-carboxamide], the IC50 was more than 2e-05 M in experiment [1] and 1.72e-07 M in experiment [2].
On to `CN(C)CC(O)CNC(=O)c1cc(-c2ccc(Cl)cc2)nn(-c2cccc(F)c2)c1=O` (racemic) [Example 235, 6-(4-Chlorophenyl)-N-[(2RS)-3-(dimethylamino)-2-hydroxypropyl]-2-(3-fluorophenyl)-3-oxo-2,3-dihydropyridazine-4-carboxamide], for which the half-inhibitory concentration (IC50) in experiment [1] is more than 2e-05 M; in experiment [2], 3e-06 M.
For the molecule `Cc1ccc(-c2cc(C(=O)NC(CO)C3CC3)c(=O)n(-c3cccc(F)c3)n2)cc1` (racemic) [Example 236, N-[(1RS)-1-Cyclopropyl-2-hydroxyethyl]-2-(3-fluorophenyl)-6-(4-methylphenyl)-3-oxo-2,3-dihydropyridazine-4-carboxamide], the IC50 in experiment [1] is more than 2e-05 M; in experiment [2], 8.23e-08 M.
Consider `CC(C)C(O)CNC(=O)c1cc(-c2ccc(C(F)(F)F)cc2)nn(-c2cccc(F)c2)c1=O` (racemic) [Example 241, 2-(3-Fluorophenyl)-N-[(2RS)-2-hydroxy-3-methylbutyl]-3-oxo-6-[4-(trifluoromethyl)phenyl]-2,3-dihydropyridazine-4-carboxamide], for which the figures for the IC50 in experiment [1] and in experiment [2] were 1.16e-07 M and more than 2e-05 M, respectively.
With `O=C(NCC(O)C(F)(F)F)c1cc(-c2ccc(C(F)(F)F)cc2)nn(-c2cccc(F)c2)c1=O` (racemic) [Example 242, 2-(3-Fluorophenyl)-3-oxo-N-[(2RS)-3,3,3-trifluoro-2-hydroxypropyl]-6-[4-(trifluoromethyl)phenyl]-2,3-dihydropyridazine-4-carboxamide], the values for the IC50 in experiment [1] and in experiment [2] were 1.18e-05 M and more than 2e-05 M, respectively.
The matching figures for `COCCC(CO)NC(=O)c1cc(-c2ccc(C(F)(F)F)cc2)nn(-c2cccc(F)c2)c1=O` (racemic) [Example 259, 2-(3-Fluorophenyl)-N-[(2RS)-1-hydroxy-4-methoxybutan-2-yl]-3-oxo-6-[4-(trifluoromethyl)phenyl]-2,3-dihydropyridazine-4-carboxamide]: more than 2e-05 M and 3.82e-08 M.
For `O=C(NCC(O)C(F)F)c1cc(-c2ccc(C(F)(F)F)cc2)nn(-c2cccc(F)c2)c1=O` (racemic) [Example 261, N-[(2RS)-3,3-Difluoro-2-hydroxypropyl]-2-(3-fluorophenyl)-3-oxo-6-[4-(trifluoromethyl)phenyl]-2,3-dihydropyridazine-4-carboxamide] the same measures were more than 2e-05 M and 2.26e-08 M.
For `CC(C)(O)C(O)CNC(=O)c1cc(-c2ccc(Cl)cc2)nn(-c2cccc(F)c2)c1=O` (racemic) [Example 322, 6-(4-chlorophenyl)-N-[(2RS)-2,3-dihydroxy-3-methylbutyl]-2-(3-fluorophenyl)-3-oxo-2,3-dihydropyridazine-4-carboxamide] the same measures were more than 2e-05 M and 1.14e-07 M.
As for `O=C(NC(CO)Cc1ccccn1)c1cc(-c2ccc(Cl)cc2)nn(-c2cccc(F)c2)c1=O` (racemic) [Example 333, 6-(4-chlorophenyl)-2-(3-fluorophenyl)-N-[(2RS)-1-hydroxy-3-(pyridin-2-yl)propan-2-yl]-3-oxo-2,3-dihydropyridazine-4-carboxamide], the IC50 was more than 2e-05 M in experiment [1] and 1.34e-07 M in experiment [2].
With `O=C(NC(CO)Cc1ccncc1)c1cc(-c2ccc(Cl)cc2)nn(-c2cccc(F)c2)c1=O` (racemic) [Example 334, 6-(4-chlorophenyl)-2-(3-fluorophenyl)-N-[(2RS)-1-hydroxy-3-(pyridin-4-yl)propan-2-yl]-3-oxo-2,3-dihydropyridazine-4-carboxamide], the IC50 in experiment [1] is more than 2e-05 M; in experiment [2] it was 1.09e-07 M.
For the molecule `O=C(NC(CO)Cc1cccnc1)c1cc(-c2ccc(Cl)cc2)nn(-c2cccc(F)c2)c1=O` (racemic) [Example 338, 6-(4-chlorophenyl)-2-(3-fluorophenyl)-N-[(2RS)-1-hydroxy-3-(pyridin-3-yl)propan-2-yl]-3-oxo-2,3-dihydropyridazine-4-carboxamide], the IC50 in experiment [1] is more than 2e-05 M; in experiment [2] it was 7.32e-08 M.
Take `O=C(NC(CCO)C(F)(F)F)c1cc(-c2ccc(Cl)cc2)nn(-c2cccc(F)c2)c1=O` (racemic) [Example 340, 6-(4-chlorophenyl)-2-(3-fluorophenyl)-3-oxo-N-[(2RS)-1,1,1-trifluoro-4-hydroxybutan-2-yl]-2,3-dihydropyridazine-4-carboxamide]: the IC50 in experiment [1] is more than 2e-05 M; in experiment [2], 2.26e-08 M.
Regarding `O=C(N[C@@H]1COC[C@@H]1O)c1cc(-c2ccc(C(F)(F)F)cc2)nn(-c2cccc(F)c2)c1=O` (racemic) [Example 341, 2-(3-fluorophenyl)-N-(cis-4-hydroxytetrahydrofuran-3-yl)-3-oxo-6-[4-(trifluoromethyl)phenyl]-2,3-dihydropyridazine-4-carboxamide], the results for the IC50 in experiment [1] and in experiment [2] were more than 2e-05 M and 8.45e-09 M, respectively.
With `O=C(N[C@@H]1CC[C@@H]1O)c1cc(-c2ccc(Cl)cc2)nn(-c2cccc(F)c2)c1=O` (racemic) [Example 356, 6-(4-chlorophenyl)-2-(3-fluorophenyl)-N-(cis-2-hydroxycyclobutyl)-3-oxo-2,3-dihydropyridazine-4-carboxamide], the results for the IC50 in experiment [1] and in experiment [2] were more than 2e-05 M and 4.18e-08 M, respectively.
The matching figures for `COc1ccc(-c2cc(C(=O)N[C@@H]3CCCC[C@@H]3O)c(=O)n(-c3cccc(F)c3)n2)cc1` (relative stereo) [Example 106, 2-(3-Fluorophenyl)-N-(cis-2-hydroxycyclohexyl)-6-(4-methoxyphenyl)-3-oxo-2,3-dihydropyridazine-4-carboxamide]: more than 2e-05 M and 1.98e-08 M.
`O=C(N[C@H]1CCCC[C@@H]1O)c1cc(-c2ccc(Cl)cc2)nn(-c2cccc(F)c2)c1=O` (relative stereo) [Example 117, 6-(4-chlorophenyl)-2-(3-fluorophenyl)-N-(trans-2-hydroxycyclohexyl)-3-oxo-2,3-dihydropyridazine-4-carboxamide]: the IC50 in experiment [1] is more than 2e-05 M; in experiment [2], 3.67e-08 M.
In the case of `O=C(N[C@@H]1CCCC[C@@H]1O)c1cc(-c2ccc(OC(F)F)cc2)nn(-c2cccc(F)c2)c1=O` (relative stereo) [Example 130, 6-[4-(Difluoromethoxy)phenyl]-2-(3-fluorophenyl)-N-(cis-2-hydroxycyclohexyl)-3-oxo-2,3-dihydropyridazine-4-carboxamide], the IC50 in experiment [1] is more than 2e-05 M; in experiment [2], 4.37e-08 M.
For `O=C(N[C@H]1COC[C@@H]1O)c1cc(-c2ccc(Cl)cc2)nn(-c2cccc(F)c2)c1=O` (relative stereo) [Example 134, 6-(4-Chlorophenyl)-2-(3-fluorophenyl)-N-(trans-4-hydroxytetrahydrofuran-3-yl)-3-oxo-2,3-dihydropyridazine-4-carboxamide], the IC50 in experiment [1] was more than 2e-05 M; in experiment [2], 1.72e-07 M.
`C[C@H](O)[C@H](C)NC(=O)c1cc(-c2ccc(OC(F)F)cc2)nn(-c2cccc(F)c2)c1=O` (relative stereo) [Example 143, rel-6-[4-(Difluoromethoxy)phenyl]-2-(3-fluorophenyl)-N-[(2S,3S)-3-hydroxybutan-2-yl]-3-oxo-2,3-dihydropyridazine-4-carboxamide]: the IC50 in experiment [1] was more than 2e-05 M; in experiment [2] it was 8.07e-08 M.

The values above are taken from US11040035B2, “3-oxo-2,6-diphenyl-2,3-dihydropyridazine-4-carboxamides” (BAYER PHARMA AKTIENGESELLSCHAFT, priority 2016, dated 2021).
